{"source": "patent US8697747B2", "about": "“Enhancing coagulation or reducing fibrinolysis” (THe UAB Research Foundation, priority 2009, dated 2014)", "key": {"[1]": {"system": "pooled normal plasma", "assay": "CLSM thrombelastography with tPA in undiluted and 30% diluted plasma", "type": "biochemical, human", "conditions": "tPA 100 IU/mL, 100 μM CORM-2, median, n=8", "source_text": "Plasma and volume expanders. Pooled normal plasma (George King Bio-Medical, Overland Park, Kans.) anticoagulated with sodium citrate was utilized for experimentation. […] The volume expanders tested were 0.9% NaCl (Abbott Laboratories, North Chicago, Ill.; also designated as NS) and 6% hydroxylethyl starch (HES) in 0.9% NaCl (VOLUVEN®, average molecular weight 130 kDa, 0.4 degree of substitution, C2:C6 ratio of substitution 11.2; Fresenius Kabi, Bad Homburg, Germany; also referred to as VOL).\nPlasma sample composition of experiments with tissue-type plasminogen activator addition. As in the first series of experiments, the final volume of plasma sample mixtures was 359.6 μL. Sample composition consisted of 316 μL of plasma/volume expander, 10 μL of tissue factor reagent (0.1% final concentration), 3.6 μL of DMSO without or with CORM-2 (100 μM final concentration), 10 μL of tissue-type plasminogen activator (tPA, 580 U/μg, Genentech, Inc., San Francisco, Calif.) diluted with 10 mM potassium phosphate buffer (pH 7.4) for a final activity of 100 IU/mL, and 20 μL of 200 mM CaCl2. As with tissue factor reagent, tPA stock was kept on ice prior to use and was remade every two hours. Plasma was diluted 0% or 30% with NS or VOL (n=8 per condition).\nClot Lifespan Model (CLSM) Analyses. Plasma sample mixtures were placed in a disposable cup in a computer-controlled THROMBELASTOGRAPH® hemostasis system (Model 5000, Haemoscope Corp., Niles, Ill.), with addition of CaCl2 as the last step to initiate clotting. In the first series of experiments, no tPA was added, so data were collected until clot strength (maximum amplitude) was stable. In the second series of experiments which in tPA was added, data were collected until clot lysis time occurred. […] Additional elastic modulus-based parameters were determined and the nomenclature used to describe these phenomena is as follows: Time to maximum rate of thrombus generation (TMRTG): This is the time interval (sec) observed prior to maximum speed of clot growth. Maximum rate of thrombus generation (MRTG): This is the maximum velocity of clot growth observed (dynes/cm^2/sec). Total Thrombus Generation (TTG): This is the total area under the velocity curve during clot growth (dynes/cm^2), representing the amount of clot strength generated during clot growth. Time to maximum rate of lysis (TMRL): This is the time interval (sec) measured from the time of maximum strength to the time when the velocity of clot disintegration is maximal. Maximum Rate of Lysis (MRL): This is the maximum velocity of clot disintegration observed (−dynes/cm^2/sec). Area of Clot Lysis (ACL): This is the total area under the velocity curve during clot disintegration (−dynes/cm^2), representing the amount of clot strength lost during clot disintegration. As this model involves complete fibrinolysis, TTG is equivalent to ACL, so ACL was not presented as it provides no additional information.\nStatistical Analyses. Data obtained from pooled normal plasma not exposed to tPA were graphically represented with commercially available software (SigmaPlot 11.0, Systat Software, Inc., San Jose, Calif.), and kinetic modeling of thrombelastographic data performed with the same software. Analyses of the effects of hemodilution and CORM-2 on CLSM variables obtained from pooled normal plasma were conducted using Kruskal-Wallis one way analysis of variance with Student-Newman-Keuls post-hoc test. […] These analyses were conducted with the same commercially available software (SigmaPlot 11.0). A P value of <0.05 was considered significant."}, "[2]": {"system": "factor VII deficient plasma", "assay": "Thrombelastography, factor VII deficient plasma", "type": "biochemical, human", "conditions": "100 mmol CORM-2 vs control; FVII deficient plasma, 4 individuals", "protocol": "Plasma deficient (<1% normal activity) in factor VIII (FVIII; 11 individuals), factor IX (FIX; 5 individuals), or factor VII (FVII; 4 individuals) was obtained from anonymous donors (George King Bio-Medical, Overland Park, Kans.) and was anticoagulated with sodium citrate. The final volume for all subsequently described plasma sample mixtures was […]. Sample composition consisted of […] of plasma, […] of tissue factor (0.1% final concentration in 0.9% NaCl; Diagnostica Stago, Asnieres, France), 3.6 mL of dimethyl sulfoxide (DMSO) or DMSO with CORM-2 ([…]; Sigma-Aldrich, St. Louis, Mo.), and 20 mL of […] CaCl2. […] (Motterlini et al. 2005). While CORM-2 decays slowly in DMSO, DMSO was added to the dry compound just prior to placement into the plasma mixture.\nPlasma sample mixtures were placed in a disposable cup in a computer-controlled THROMBELASTOGRAPH® hemostasis system (Model 5000; Haemoscope Corp., Niles, Ill.), with addition of CaCl2 as the last step to initiate clotting. Data were collected until clot strength stabilized (maximum amplitude).\nStatistical analyses. […] A paired student's t-test was used to analyze the effects of CORM-2 exposure in FVIII deficient individuals. The results of the FIX and FVII deficient groups were presented but not statistically analyzed secondary to the small number of individuals in each cohort. […] Statistical analyses and graphical representation of the data were generated with commercially available software (SigmaPlot 11.0; Systat Software Inc., San Jose, Calif.; CorelDRAW 12.0; Corel Corp., Ottawa, Ontario, Canada). A P value of less than 0.05 was considered significant."}}}
{"smiles": "[C-]#[O+].[C-]#[O+].[C-]#[O+].[C-]#[O+].[C-]#[O+].[C-]#[O+].[Cl][Ru][Cl].[Cl][Ru][Cl]", "note": "[CORM-2, tricarbonyldichlororuthenium (II) dimer]", "values": [{"measurement": "CGT (clot growth time)", "setting": "[1]; plasma diluted 30% with NS", "value": 8.0, "unit": "min"}, {"measurement": "CLS (clot lifespan)", "setting": "[1]; plasma diluted 30% with NS", "value": 38.7, "unit": "min"}, {"measurement": "CLT (clot lysis time)", "setting": "[1]; plasma diluted 30% with NS", "value": 31.5, "unit": "min"}, {"measurement": "MRL (maximum rate of lysis)", "setting": "[1]; plasma diluted 30% with NS", "value": "−1.9 −dynes/cm^2/sec"}, {"measurement": "MRTG (maximum rate of thrombus generation)", "setting": "[1]; plasma diluted 30% with NS", "value": 11.2, "unit": "dynes/cm^2/sec"}, {"measurement": "TMRL (time to maximum rate of lysis)", "setting": "[1]; plasma diluted 30% with NS", "value": 23.4, "unit": "min"}, {"measurement": "TMRTG (time to maximum rate of thrombus generation)", "setting": "[1]; plasma diluted 30% with NS", "value": 2.00, "unit": "min"}, {"measurement": "TTG (total thrombus generation)", "setting": "[1]; plasma diluted 30% with NS", "value": 206, "unit": "dynes/cm^2"}, {"measurement": "CGT (clot growth time)", "setting": "[1]; plasma diluted 30% with VOL", "value": 2.2, "unit": "min"}, {"measurement": "CLS (clot lifespan)", "setting": "[1]; plasma diluted 30% with VOL", "value": 10.0, "unit": "min"}, {"measurement": "CLT (clot lysis time)", "setting": "[1]; plasma diluted 30% with VOL", "value": 8.0, "unit": "min"}, {"measurement": "MRL (maximum rate of lysis)", "setting": "[1]; plasma diluted 30% with VOL", "value": "−0.9 −dynes/cm^2/sec"}, {"measurement": "MRTG (maximum rate of thrombus generation)", "setting": "[1]; plasma diluted 30% with VOL", "value": 3.8, "unit": "dynes/cm^2/sec"}, {"measurement": "TMRL (time to maximum rate of lysis)", "setting": "[1]; plasma diluted 30% with VOL", "value": 5.2, "unit": "min"}, {"measurement": "TMRTG (time to maximum rate of thrombus generation)", "setting": "[1]; plasma diluted 30% with VOL", "value": 2.0, "unit": "min"}, {"measurement": "TTG (total thrombus generation)", "setting": "[1]; plasma diluted 30% with VOL", "value": 62, "unit": "dynes/cm^2"}, {"measurement": "CGT (clot growth time)", "setting": "[1]; undiluted plasma", "value": 8.1, "unit": "min"}, {"measurement": "CLS (clot lifespan)", "setting": "[1]; undiluted plasma", "value": 31.6, "unit": "min"}, {"measurement": "CLT (clot lysis time)", "setting": "[1]; undiluted plasma", "value": 24.3, "unit": "min"}, {"measurement": "MRL (maximum rate of lysis)", "setting": "[1]; undiluted plasma", "value": "−3.0 −dynes/cm^2/sec"}, {"measurement": "MRTG (maximum rate of thrombus generation)", "setting": "[1]; undiluted plasma", "value": 13.9, "unit": "dynes/cm^2/sec"}, {"measurement": "TMRL (time to maximum rate of lysis)", "setting": "[1]; undiluted plasma", "value": 17.7, "unit": "min"}, {"measurement": "TMRTG (time to maximum rate of thrombus generation)", "setting": "[1]; undiluted plasma", "value": 2.1, "unit": "min"}, {"measurement": "TTG (total thrombus generation)", "setting": "[1]; undiluted plasma", "value": 285, "unit": "dynes/cm^2"}, {"measurement": "effect on MRTG", "setting": "[2]", "value": "an increase in MRTG and TTG in all FVII deficient plasma donors"}, {"measurement": "effect on TMRTG", "setting": "[2]", "value": "an increase in TMRTG in all individuals tested"}, {"measurement": "effect on TTG", "setting": "[2]", "value": "an increase in MRTG and TTG in all FVII deficient plasma donors"}]}
